# Earlier results in US20130121963A1, “N-PHENYL-2-PYRIMIDINEAMINE DERIVATIVES” (Concert Pharmaceuticals Inc., priority 2008, published 2013).
smiles,measurement,setting,value
Cc1ccc(NC(=O)c2ccc(CN3CCNCC3)cc2)cc1Nc1nccc(-c2cccnc2)n1 [N-demethylated piperazine derivative],half-life,from the FDA label for imatinib,40 h
same,plasma AUC of the metabolite relative to that of the parent,"percent of the parent (imatinib) plasma AUC, from the FDA label",approximately 15%
